What was measured:
TMEM175 [1] = biological target: T1, TMEM175 (Homo sapiens, UniProt Q9BSA9); assay: Manual lysosomal patch-clamp (LPC) on vacuolin-1 enlarged lysosomes; assay type: biochemical
T1 sequence (Q9BSA9 1-504): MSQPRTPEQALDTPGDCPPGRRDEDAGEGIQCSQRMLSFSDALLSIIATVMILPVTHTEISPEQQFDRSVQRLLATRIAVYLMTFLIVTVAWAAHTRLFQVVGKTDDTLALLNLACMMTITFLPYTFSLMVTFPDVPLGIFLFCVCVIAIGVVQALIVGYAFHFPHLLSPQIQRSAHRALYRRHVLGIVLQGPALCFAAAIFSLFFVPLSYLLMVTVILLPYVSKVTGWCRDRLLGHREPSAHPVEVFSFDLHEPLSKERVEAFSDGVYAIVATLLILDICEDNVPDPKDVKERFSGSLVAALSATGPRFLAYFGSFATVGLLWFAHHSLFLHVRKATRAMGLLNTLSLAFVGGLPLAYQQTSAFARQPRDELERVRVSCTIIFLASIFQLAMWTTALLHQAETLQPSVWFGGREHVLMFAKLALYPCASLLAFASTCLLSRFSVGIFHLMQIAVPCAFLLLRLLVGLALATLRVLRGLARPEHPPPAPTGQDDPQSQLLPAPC
Procedure: Since both technologies apply different assay conditions and samples, the origin of the discrepancies may not be concluded. To investigate potential systematic variations among different assay technologies, namely, whole-cell APC, SSME on purified lysosomes, and manual LPC, we conducted a comparative analysis of the potency and maximum potentiation of a set of eight blinded compounds and SC-79 (Figure 8, Table 4). SSME recordings were performed using the same procedures as described for the tool compounds above. However, adjustments were made to the voltage application protocol in APC, as outlined in the Methods section. Lysosomal patch-clamp was performed using a manual setup. In contrast to APC and SSME recordings, the recorded current in LPC represents H^+ efflux from lysosomes in the presence of a physiological pH gradient (details are provided in the Methods section).
Experiments were carried out in whole-lysosome configuration in voltage-clamp mode, using a modified patch-clamp method, as described by Chen et al..
Briefly, cells were treated overnight with 5 µM vacuolin-1 to increase the size of the lysosomes. Mechanical isolation was performed using a patch pipette pressed against a selected cell, and quickly pulled away to slice the cell membrane to release the enlarged lysosomes into the dish. After the dissection of the lysosomes, the glass electrode was exchanged for a recording electrode. After the formation of a giga-seal and compensation of capacitance transients, voltage steps of several hundred millivolts with millisecond duration were applied to break into the vacuolar membrane.
The bath solution representing the cytosol contained 10 mM HEPES (pH 7.2), 145 mM K-methanesulfonate and 5 mM KCl. The pipette solution representing the lysosomal lumen contained 10 mM MES (pH 5.5), 145 mM Cs-methanesulfonate, 5 mM KCl, and 10 mM EGTA.
After the reappearance of capacitance transients to verify the whole-lysosome configuration, the TMEM175 currents were recorded using a ramp protocol from −100 to +100 mV with 1 s of duration, digitized at 20 kHz. The ramp protocol was repeated in 4 s intervals, keeping the lysosomes at 0 mV in between. We used the outward current at +100 mV as a read-out, essentially observing the flux of H^+ and Cs^+ from the lysosome into the cytosol. […]
Before averaging across datasets obtained from N = 3 lysosomes, we normalized the currents to the control current. Datasets containing 6 or 9 compound concentrations were recorded in two or three sets of experiments with 3 compound concentrations per lysosome. All experiments were conducted at room temperature, and recordings were analyzed with pClamp 10.7 and GraphPad Prism 8.

TMEM175 [2] = biological target: T1, TMEM175; assay: Whole-cell automated patch-clamp (APC) Cs+ flux assay, SyncroPatch 384i, HEK293 overexpressing TMEM175; assay type: cell-based; details: 50 µM, at +100 mV, Figure 7F

Compound: CCOC(=O)C1=C(N)Oc2ccc(Cl)cc2C1C(C#N)C(=O)OCC (centres unmarked) [SC-79]
- Imax − Imin (nA), LPC (TMEM175 [1]; Table 4 fit, currents normalized to current before compound): 0.91 ± 0.52 nA
- n (Hill coefficient), LPC (TMEM175 [1]; fixed to 1 in the fit): 1
- Potentiation, LPC (TMEM175 [1]; from dose-response fit, Figure 8): 91 ± 52%
- EC50 (TMEM175 [1]; outward current at +100 mV, pipette pH 5.5 / bath pH 7.2): 21 ± 32 µM
- Current of TMEM175 cells after enhancer, APC (TMEM175 [2]): 305 ± 39%
